Assay results: ChEMBL document CHEMBL1201862, “PubChem BioAssay data set” (2004)
Each block holds one compound with its values, some of them ahead of it. Active and inactive are the calls of the source.

Experiments:
[1] = tested on: Vero; test: viability of Vero cells under compound – cytotoxicity control for flavivirus capping enzyme inhibitors (AID 588742); format: functional; conditions: Chlorocebus sabaeus
[2] = viability of PTEN-deleted HCT116 cells – cell-based, HCT116 PTEN knockout, dose response (AID 1047); format: functional;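 note: HCT116 colon tumor cells with PTEN knocked out; cells exposed to compound for 60 hours before readout; potency for loss of cell viability measured by luminescence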
[3] = viability of HCT116 lacking mutant beta-catenin – cell-based, human colon tumor, dose response (AID 1045); format: functional;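 note: HCT116 colon tumor cells with beta catenin knocked out; cells exposed to compound for 60 hours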
[4] = tested on: Escherichia coli; test: microbe, parasite or virus in culture
[5] = molecular target: Mitogen-activated protein kinase 13 (Homo sapiens, UniProt O15264); format: functional
Sequence of Mitogen-activated protein kinase 13 (O15264 whole entry): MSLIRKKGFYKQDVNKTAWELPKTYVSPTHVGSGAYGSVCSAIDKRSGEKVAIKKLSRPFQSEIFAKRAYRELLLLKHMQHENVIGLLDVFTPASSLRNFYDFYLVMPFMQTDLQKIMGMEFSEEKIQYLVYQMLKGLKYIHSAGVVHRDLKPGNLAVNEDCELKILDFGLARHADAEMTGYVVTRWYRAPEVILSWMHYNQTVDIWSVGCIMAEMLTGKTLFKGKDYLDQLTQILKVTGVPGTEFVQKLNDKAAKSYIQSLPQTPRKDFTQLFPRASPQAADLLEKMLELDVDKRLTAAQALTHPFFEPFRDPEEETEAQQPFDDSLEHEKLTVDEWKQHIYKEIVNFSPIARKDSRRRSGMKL

[6] = tested on: HEK293; test: cells; format: functional, cell-based; conditions: Homo sapiens
[7] = molecular target: T1, Nuclear receptor subfamily 0 group B member 1 (Homo sapiens, UniProt P51843); test: Luminescence-based cell-based high throughput dose response assay for inhibitors of the orphan nuclear receptor subfamily 0, group B, member 1 (DAX1; NR0B1). [Related pubchem assays (depositor defined):AID504766, AID504790]; format: functional
T1 sequence (P51843 whole entry): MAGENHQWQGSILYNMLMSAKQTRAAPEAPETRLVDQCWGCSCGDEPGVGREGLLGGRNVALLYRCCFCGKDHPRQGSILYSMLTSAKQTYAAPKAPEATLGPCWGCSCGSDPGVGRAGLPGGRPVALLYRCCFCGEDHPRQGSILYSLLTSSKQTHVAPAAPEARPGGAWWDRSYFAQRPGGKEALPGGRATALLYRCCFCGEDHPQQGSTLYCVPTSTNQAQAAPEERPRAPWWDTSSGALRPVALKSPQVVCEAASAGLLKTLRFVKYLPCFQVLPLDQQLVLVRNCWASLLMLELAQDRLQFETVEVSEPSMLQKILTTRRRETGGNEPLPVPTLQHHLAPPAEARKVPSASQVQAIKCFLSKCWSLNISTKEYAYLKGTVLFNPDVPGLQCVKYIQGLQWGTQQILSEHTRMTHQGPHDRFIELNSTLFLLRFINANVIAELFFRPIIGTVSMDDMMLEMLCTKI

[8] = molecular target: Melanin-concentrating hormone receptor 1 (Homo sapiens, UniProt Q99705); test: Late-stage fluorescence-based counterscreen for antagonists of the G-protein coupled receptor 7 (GPR7): cell-based dose response assay to identify antagonists of the melanin-concentrating hormone receptor 1 (MCHR1) Set 5.; format: functional
Sequence of Melanin-concentrating hormone receptor 1 (Q99705 whole entry): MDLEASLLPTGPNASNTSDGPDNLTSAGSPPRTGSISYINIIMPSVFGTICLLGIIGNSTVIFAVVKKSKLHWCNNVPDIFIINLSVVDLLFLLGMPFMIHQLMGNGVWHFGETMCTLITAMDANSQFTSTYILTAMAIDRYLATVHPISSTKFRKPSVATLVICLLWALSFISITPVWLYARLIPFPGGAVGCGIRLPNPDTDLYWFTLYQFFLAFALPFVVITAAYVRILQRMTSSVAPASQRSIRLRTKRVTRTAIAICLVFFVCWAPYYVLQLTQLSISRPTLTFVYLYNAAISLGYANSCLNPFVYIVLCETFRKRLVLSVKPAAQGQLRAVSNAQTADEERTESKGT

[9] = molecular target: Neuropeptides B/W receptor type 1 (Homo sapiens, UniProt P48145); test: human NPBW1 receptor blockade, IC50 – cell-based, fluorescence, dose response, set 5, late-stage follow-up (AID 588566); format: functional
Sequence of Neuropeptides B/W receptor type 1 (P48145 whole entry): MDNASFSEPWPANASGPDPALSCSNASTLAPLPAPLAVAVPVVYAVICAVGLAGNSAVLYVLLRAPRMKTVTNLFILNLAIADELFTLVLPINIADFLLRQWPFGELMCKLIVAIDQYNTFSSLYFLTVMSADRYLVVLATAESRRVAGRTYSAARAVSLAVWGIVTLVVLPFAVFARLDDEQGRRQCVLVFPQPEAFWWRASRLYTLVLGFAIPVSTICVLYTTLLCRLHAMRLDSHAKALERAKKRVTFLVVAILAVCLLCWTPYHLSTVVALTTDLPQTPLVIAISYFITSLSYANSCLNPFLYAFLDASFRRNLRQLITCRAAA

[10] = molecular target: Voltage-gated inwardly rectifying potassium channel KCNH2 (Homo sapiens, UniProt Q12809); conditions: Potency;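 note: confirmatory quantitative high-throughput screen measuring inhibition of hERG channel activity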
Sequence of Voltage-gated inwardly rectifying potassium channel KCNH2 (Q12809 whole entry): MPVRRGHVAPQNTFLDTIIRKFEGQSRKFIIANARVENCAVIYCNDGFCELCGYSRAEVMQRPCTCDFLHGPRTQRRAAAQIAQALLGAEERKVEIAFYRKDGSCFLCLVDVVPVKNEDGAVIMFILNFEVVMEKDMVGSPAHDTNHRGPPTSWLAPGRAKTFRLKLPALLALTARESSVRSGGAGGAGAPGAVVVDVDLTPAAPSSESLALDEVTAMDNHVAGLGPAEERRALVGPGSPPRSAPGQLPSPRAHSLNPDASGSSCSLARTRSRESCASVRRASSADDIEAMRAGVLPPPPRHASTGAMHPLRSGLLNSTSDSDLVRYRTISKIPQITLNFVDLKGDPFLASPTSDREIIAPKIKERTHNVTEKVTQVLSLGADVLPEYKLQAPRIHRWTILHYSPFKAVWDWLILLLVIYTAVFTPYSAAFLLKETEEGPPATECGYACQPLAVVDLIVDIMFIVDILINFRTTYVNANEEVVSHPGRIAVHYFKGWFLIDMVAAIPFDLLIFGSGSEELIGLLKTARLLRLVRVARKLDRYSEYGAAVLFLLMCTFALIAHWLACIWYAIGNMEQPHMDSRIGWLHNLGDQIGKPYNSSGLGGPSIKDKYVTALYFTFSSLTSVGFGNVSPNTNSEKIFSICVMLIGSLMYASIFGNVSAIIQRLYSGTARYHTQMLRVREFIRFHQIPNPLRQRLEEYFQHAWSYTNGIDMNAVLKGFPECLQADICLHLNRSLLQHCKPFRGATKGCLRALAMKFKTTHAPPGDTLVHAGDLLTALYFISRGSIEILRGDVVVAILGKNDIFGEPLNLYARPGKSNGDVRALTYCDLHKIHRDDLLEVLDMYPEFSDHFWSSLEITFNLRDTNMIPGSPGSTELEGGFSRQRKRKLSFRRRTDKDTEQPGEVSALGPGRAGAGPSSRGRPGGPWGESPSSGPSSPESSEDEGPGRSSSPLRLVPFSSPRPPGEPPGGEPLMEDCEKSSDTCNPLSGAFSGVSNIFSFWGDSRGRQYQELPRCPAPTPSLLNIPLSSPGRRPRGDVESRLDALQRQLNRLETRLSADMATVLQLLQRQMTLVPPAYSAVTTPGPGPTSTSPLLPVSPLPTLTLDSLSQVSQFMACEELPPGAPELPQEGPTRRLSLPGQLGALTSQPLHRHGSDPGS

[11] = molecular target: Cysteine protease ATG4B (Homo sapiens, UniProt Q9Y4P1); format: functional;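 note: Fluorescence-based dose-response confirmation assay measuring inhibition of ATG4B activity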
Sequence of Cysteine protease ATG4B (Q9Y4P1 whole entry): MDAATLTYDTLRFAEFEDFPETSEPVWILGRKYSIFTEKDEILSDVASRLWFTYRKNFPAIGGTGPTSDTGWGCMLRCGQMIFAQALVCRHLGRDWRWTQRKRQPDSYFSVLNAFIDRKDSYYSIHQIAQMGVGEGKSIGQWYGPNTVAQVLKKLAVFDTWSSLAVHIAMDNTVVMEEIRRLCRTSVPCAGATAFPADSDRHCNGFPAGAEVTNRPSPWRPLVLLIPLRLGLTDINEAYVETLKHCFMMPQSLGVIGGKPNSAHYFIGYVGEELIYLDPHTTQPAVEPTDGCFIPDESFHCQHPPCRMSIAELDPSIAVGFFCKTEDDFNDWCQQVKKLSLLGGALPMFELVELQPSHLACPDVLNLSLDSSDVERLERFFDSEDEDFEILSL

[12] = molecular target: Phospholipase A2 (Homo sapiens, UniProt P04054); format: functional;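 note: confirmatory dose-response counterscreen on phospholipase A2, testing hits that came from an ultra-high-throughput screen for ATG4B inhibitors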
Sequence of Phospholipase A2 (P04054 whole entry, canonical isoform): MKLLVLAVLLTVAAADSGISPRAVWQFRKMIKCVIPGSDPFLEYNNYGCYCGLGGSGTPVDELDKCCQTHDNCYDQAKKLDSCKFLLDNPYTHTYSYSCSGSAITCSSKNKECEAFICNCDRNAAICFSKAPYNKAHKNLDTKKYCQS

[13] = molecular target: Casein kinase I isoform delta (Homo sapiens, UniProt P48730); format: functional;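 note: measured as one member (CSNK1D) of a kinome panel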
Sequence of Casein kinase I isoform delta (P48730 whole entry, canonical isoform): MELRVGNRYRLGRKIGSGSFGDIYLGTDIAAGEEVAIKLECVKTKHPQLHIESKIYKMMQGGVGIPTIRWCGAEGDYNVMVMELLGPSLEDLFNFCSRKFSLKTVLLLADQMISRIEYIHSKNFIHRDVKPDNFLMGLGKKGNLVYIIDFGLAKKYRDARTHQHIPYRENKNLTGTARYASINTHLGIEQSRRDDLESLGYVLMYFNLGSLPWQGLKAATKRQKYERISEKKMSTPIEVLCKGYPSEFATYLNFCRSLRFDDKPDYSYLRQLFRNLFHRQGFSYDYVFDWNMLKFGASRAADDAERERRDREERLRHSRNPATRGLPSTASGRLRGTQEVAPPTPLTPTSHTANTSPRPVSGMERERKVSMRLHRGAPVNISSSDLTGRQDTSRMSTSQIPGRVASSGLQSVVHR

[14] = molecular target: T2, Short transient receptor potential channel 4 (Mus musculus, UniProt Q9QUQ5); test: block of DAMGO-driven TRPC4 calcium entry – cell-based, HEK293 TRPC4/mu-opioid, Fluo-4 calcium, dose response (AID 434942); format: functional;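 note: potency of inhibitors blocking the TRPC4 calcium response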
T2 sequence (Q9QUQ5 whole entry): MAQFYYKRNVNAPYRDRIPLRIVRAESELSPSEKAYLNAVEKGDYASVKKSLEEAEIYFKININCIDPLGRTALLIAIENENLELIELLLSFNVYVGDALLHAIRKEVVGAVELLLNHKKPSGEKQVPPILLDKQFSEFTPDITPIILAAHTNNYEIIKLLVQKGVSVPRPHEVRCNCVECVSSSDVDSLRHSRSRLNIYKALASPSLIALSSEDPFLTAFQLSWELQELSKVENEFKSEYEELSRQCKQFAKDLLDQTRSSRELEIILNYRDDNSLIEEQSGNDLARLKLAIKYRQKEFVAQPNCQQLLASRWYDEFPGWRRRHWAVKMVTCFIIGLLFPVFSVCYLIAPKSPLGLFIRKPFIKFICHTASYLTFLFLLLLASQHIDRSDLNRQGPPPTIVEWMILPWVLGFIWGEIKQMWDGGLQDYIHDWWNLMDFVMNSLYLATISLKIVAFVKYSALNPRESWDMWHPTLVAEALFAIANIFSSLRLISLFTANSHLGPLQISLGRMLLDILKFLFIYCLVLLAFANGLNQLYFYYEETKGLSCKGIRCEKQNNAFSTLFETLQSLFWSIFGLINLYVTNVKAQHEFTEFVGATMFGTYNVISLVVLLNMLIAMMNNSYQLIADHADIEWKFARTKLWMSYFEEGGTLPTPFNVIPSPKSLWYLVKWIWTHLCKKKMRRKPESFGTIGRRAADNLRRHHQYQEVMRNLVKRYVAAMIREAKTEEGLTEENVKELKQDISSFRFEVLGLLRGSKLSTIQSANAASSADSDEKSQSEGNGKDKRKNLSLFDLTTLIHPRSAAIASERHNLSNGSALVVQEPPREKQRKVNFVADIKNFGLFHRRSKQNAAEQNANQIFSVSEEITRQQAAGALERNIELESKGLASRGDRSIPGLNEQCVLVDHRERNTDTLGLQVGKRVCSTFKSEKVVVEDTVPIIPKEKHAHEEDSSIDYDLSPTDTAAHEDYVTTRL

[15] = molecular target: Mu-type opioid receptor (Homo sapiens, UniProt P35372); test: (§1) Counterscreen for agonists of heterodimerization of the mu 1 (OPRM1) and delta 1 (OPRD1) opioid receptors: Luminescence-based cell-based high throughput dose response assay to identify agonists of OPRM1 homodimerization.; format: functional
Sequence of Mu-type opioid receptor (P35372 whole entry): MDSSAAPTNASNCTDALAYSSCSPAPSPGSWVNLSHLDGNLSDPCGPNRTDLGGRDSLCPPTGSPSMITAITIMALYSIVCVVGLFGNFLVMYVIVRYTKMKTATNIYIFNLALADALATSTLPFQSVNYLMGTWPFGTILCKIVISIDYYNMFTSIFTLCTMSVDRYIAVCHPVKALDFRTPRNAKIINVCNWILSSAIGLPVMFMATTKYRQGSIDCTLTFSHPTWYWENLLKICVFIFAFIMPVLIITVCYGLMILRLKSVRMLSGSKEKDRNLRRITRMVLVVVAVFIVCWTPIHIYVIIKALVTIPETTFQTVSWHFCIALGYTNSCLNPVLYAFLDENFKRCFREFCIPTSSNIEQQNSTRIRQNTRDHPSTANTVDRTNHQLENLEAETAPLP

[16] = molecular target: 5-hydroxytryptamine receptor 5A (Homo sapiens, UniProt P47898); test: Counterscreen for agonists of OPRM1-OPRD1 heterodimerization: luminescence-based cell-based high throughput dose response assay to identify agonists of 5-hydroxytryptamine (serotonin) 5A receptor (HTR5A). [Related pubchem assays (depositor defined):AID504326, AID504355, AID504692, AID504904, AID504905]; format: functional
Sequence of 5-hydroxytryptamine receptor 5A (P47898 whole entry): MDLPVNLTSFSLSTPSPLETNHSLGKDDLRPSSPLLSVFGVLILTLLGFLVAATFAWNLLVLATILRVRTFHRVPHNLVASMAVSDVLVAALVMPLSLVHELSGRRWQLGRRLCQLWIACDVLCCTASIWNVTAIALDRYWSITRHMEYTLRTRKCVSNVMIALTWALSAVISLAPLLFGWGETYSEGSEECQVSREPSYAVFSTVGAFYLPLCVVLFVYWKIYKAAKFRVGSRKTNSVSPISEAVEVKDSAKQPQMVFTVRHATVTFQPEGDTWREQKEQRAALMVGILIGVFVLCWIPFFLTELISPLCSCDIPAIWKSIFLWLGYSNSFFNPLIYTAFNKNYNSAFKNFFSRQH

[17] = molecular target: Delta-type opioid receptor (Homo sapiens, UniProt P41143); test: as §1, with “of OPRD1” for “of OPRM1”, “homodimerization. [Related pubchem assays (depositor defined):AID504326, AID504355, AID504692, AID504904, AID504905]” for “homodimerization.”; format: functional
Sequence of Delta-type opioid receptor (P41143 whole entry): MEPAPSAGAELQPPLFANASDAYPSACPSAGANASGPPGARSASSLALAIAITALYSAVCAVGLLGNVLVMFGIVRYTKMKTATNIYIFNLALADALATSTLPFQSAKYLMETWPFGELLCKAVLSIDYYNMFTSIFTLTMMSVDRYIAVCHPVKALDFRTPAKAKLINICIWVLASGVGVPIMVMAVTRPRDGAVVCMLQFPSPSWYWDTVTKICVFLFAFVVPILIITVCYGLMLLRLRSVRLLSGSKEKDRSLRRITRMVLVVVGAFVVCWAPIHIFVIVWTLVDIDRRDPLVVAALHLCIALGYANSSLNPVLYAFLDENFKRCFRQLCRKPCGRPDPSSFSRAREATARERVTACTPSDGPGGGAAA

[18] = molecular target: Beta-2 adrenergic receptor (Homo sapiens, UniProt P07550); test: ADRB2 activation measured by internalization – cell-based, FAP fluorogen, flow cytometry, cherry pick 1, dose response (AID 588763); format: functional
Sequence of Beta-2 adrenergic receptor (P07550 whole entry): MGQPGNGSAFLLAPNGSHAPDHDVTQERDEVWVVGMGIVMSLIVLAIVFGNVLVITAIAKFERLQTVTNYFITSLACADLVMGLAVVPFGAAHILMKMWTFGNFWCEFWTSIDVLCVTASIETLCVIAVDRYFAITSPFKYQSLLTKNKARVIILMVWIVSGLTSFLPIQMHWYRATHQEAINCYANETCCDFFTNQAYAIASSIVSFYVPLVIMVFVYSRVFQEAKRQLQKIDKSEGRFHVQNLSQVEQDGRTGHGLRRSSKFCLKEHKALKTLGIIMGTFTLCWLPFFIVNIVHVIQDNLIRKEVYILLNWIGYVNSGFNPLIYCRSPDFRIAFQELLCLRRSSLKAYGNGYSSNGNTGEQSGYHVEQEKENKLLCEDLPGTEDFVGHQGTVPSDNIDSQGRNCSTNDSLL

[19] = molecular target: T3, Hexokinase-1 (Homo sapiens, UniProt P19367); test: hexokinase 1 activity inhibitors, potency – biochemical, set 2, resazurin fluorescence coupled readout, selectivity assay for HKDC1 inhibitor project, SAR follow-up (AID 588356); format: functional
T3 sequence (P19367 whole entry): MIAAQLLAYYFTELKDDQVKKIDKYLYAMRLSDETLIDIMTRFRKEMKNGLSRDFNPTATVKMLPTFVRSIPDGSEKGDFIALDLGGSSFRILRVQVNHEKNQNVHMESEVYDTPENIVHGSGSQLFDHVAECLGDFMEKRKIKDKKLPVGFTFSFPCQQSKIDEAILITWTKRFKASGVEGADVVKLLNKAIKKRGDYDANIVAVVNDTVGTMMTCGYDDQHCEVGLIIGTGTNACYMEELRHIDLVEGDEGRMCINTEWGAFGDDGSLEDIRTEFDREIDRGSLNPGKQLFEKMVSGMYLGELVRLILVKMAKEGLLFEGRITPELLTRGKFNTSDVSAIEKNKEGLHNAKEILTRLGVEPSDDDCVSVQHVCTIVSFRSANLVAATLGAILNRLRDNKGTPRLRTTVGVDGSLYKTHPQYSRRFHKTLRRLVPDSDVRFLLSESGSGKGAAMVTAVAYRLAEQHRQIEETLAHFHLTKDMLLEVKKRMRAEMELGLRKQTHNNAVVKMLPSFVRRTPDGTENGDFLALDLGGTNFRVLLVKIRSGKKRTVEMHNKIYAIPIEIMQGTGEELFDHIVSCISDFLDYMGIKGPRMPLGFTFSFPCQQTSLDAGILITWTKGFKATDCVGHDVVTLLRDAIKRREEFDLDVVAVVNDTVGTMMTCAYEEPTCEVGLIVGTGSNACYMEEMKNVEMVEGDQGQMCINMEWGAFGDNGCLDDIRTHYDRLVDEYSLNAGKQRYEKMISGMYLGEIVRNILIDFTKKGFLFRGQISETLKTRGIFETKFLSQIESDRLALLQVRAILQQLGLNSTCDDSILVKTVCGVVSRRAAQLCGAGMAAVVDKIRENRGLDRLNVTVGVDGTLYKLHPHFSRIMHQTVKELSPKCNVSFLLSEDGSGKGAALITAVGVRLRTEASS

[20] = molecular target: T4, Hexokinase HKDC1 (Homo sapiens, UniProt Q2TB90); test: analog inhibition of human HKDC1 activity – biochemical, set 2, SAR follow-up (AID 588355); format: functional
T4 sequence (Q2TB90 whole entry): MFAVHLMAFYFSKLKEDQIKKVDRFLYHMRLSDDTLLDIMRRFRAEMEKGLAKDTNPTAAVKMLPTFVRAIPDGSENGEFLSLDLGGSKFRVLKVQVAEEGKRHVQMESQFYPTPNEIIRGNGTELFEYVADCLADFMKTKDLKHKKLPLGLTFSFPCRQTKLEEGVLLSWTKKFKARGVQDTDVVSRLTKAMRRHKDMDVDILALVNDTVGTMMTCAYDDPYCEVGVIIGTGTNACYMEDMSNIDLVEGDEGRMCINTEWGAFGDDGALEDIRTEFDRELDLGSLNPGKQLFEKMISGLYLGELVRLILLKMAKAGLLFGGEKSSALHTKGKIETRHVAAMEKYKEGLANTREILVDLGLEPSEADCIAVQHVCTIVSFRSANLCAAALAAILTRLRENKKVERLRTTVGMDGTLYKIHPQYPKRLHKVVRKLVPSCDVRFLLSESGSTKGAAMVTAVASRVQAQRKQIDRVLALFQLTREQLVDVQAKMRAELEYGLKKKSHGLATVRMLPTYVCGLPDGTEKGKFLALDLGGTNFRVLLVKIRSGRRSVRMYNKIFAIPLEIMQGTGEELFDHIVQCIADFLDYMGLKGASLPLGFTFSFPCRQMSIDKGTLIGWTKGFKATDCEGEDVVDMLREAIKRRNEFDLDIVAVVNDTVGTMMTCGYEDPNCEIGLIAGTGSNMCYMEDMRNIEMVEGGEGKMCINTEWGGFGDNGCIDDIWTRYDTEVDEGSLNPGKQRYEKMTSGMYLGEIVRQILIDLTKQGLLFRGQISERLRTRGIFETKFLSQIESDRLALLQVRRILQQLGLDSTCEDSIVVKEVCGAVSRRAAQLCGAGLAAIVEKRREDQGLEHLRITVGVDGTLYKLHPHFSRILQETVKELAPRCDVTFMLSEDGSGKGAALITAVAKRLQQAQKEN

SMILES: Cc1[nH]n(-c2ccccc2)c(=O)c1N=Nc1nccs1
CC50 [1]: > 40 µM (active) | EC50 [2]: 5.42 µM (active) | EC50 [3]: 4.29 µM (active)

SMILES: Cc1nn(-c2ccccc2)c(C)c1NC(=O)COC(=O)c1ccc(Cl)c(S(N)(=O)=O)c1
AC50 [4]: 28.1 µM (active)

Ki [5]: > 7.94 µM (inactive)
SMILES: N#Cc1ncc2nc1OCCCCCOc1cc(OCCCO)c(Cl)cc1NC(=O)N2

SMILES: CC(C)(C)c1ccc(-c2noc(-c3ccno3)n2)cc1
IC50 [6]: > 67.5 µM (inactive) | IC50 [7]: > 67.5 µM (inactive)

SMILES: Cc1nc2ncccn2c1-c1csc(NCc2ccco2)n1
CC50 [1]: > 40 µM (active)

IC50 [8]: > 20 µM (inactive) | IC50 [9]: > 20 µM (inactive)
SMILES: O=C(C1CCCCN1C1c2ccccc2-c2ccccc21)N1CCN(c2ccc([N+](=O)[O-])cc2)CC1 (stereo not given)

SMILES: CCOP(=S)(OCC)Oc1nc(Cl)c(Cl)cc1Cl [CHLORPYRIFOS]
AC50 [10]: 50.1 µM (inconclusive)

IC50 [8]: > 20 µM (inactive) | IC50 [9]: > 20 µM (inactive)
SMILES: CCOC(=O)c1nn(-c2ccc(C(C)C)cc2)c(=O)c(Oc2ccc(OC)cc2)c1Cl

IC50 [11]: 13.3 µM (active) | IC50 [12]: 8.83 µM (active)
SMILES: Cc1ccc(-c2cc(C(=O)N3CCc4ccccc4C3)no2)cc1

SMILES: c1ccc(C2NCc3ccccc3-n3cccc32)cc1 (stereo not given)
AC50 [4]: > 150 µM (inactive)

Ki [13]: 3.16 µM (active)
SMILES: CC1(N2CCC(c3ccccc3)CC2)CCN(C(=O)CNc2ncnc3cc(Cl)c(Cl)cc23)C1 (stereo not given)

SMILES: CCOC(=O)C1(CCc2ccccc2)CCN(Cc2ccco2)CC1
EC50 [14]: 1.19 µM (active) | EC50 [15]: > 92.5 µM (inactive) | EC50 [16]: > 92.5 µM (inactive) | EC50 [17]: > 92.5 µM (inactive)

EC50 [18]: 0.0444 µM (active)
SMILES: O=C(CN1C(=O)CCC1=O)Nc1nc(-c2nc3ccccc3s2)cs1

EC50 [18]: 6.08 µM (active)
SMILES: CN(Cc1ccccc1F)c1nc(-c2cccnc2)nc2ccccc12

IC50 [19]: > 80 µM (inactive) | IC50 [20]: > 80 µM (inactive)
SMILES: CC(=O)NC1C(=O)N(Cc2ccccc2)c2ccc(Br)cc21 (stereo not given)
